The values that follow come from US12612368B2 (Remedy Plan, Inc., priority 2019, dated 2026).

The subject of one assay is MV-4-11 cells. Description: Cell viability in MV-4-11 cells (CellTiter Glo2). The format is cell-based. The following applies: Homo sapiens, MV4-11, 96 h, 8-point dose response, 4 days.
Another assay has as its target T1, NAMPT (Homo sapiens, UniProt P43490).
T1 construct: purchased Abcam ab221819
Description: NAMPT Activity Assay (Abcam #ab221819). The format is biochemical. The following applies: purified NAMPT, two-step reaction, OD450 nm; percent inhibition vs no drug; compound concentration not stated.

[1] abbreviates: CellTiter Glo2 (Table E1), read-out: MV-4-11 IC50.

Read-outs that look alike come from different tables or passages of the source.

T1 sequence (P43490 whole entry): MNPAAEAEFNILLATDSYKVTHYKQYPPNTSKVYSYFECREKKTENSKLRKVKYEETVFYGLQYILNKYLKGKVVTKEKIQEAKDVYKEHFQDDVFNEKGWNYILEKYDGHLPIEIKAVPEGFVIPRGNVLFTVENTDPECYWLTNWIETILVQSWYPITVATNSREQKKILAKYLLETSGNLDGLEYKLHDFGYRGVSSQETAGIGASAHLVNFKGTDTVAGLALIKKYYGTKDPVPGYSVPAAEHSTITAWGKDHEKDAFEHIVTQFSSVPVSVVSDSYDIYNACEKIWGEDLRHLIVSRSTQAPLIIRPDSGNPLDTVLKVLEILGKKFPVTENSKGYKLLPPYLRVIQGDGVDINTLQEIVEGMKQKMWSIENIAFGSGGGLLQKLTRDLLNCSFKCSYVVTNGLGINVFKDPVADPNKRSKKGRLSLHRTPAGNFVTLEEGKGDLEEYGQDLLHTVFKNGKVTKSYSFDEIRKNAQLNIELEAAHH
Description for MV-4-11 cells: Approximately 10,000 MV-4-11 cells per well of a 96-well plate were treated with DMSO (no drug control) or each compound in Tables E1 and E2 in an 8-point dose response for 4 days, Cell viability was measured using CellTiter Glo2. The ICse of each compound was determined using CDD Vault.

For `CC(=O)N(C)Cc1ccc(-c2ccc(C(=O)NCc3cccnc3)nc2)cc1` [Compound I-319, 5-[4-[[acetyl(methyl)amino]methyl]phenyl]-N-(3-pyridylmethyl)pyridine-2-carboxamide], in the assay with MV-4-11 cells (setting [1]), the IC50 worked out at 10 µM.

For the compound `CCOC(=O)N(C)c1ccc(-c2ccc(C(=O)NCc3cccnc3)nc2)cc1` [Compound I-330, ethyl N-methyl-N-[4-[6-(3-pyridylmethylcarbamoyl)-3-pyridyl]phenyl]carbamate], at NAMPT, the “NAMPT Inhibition Code” value is reported as “A (A = <33% inhibition)”. For the same compound, the IC50 with MV-4-11 cells (setting [1]) worked out at 6.08 µM. As to `CCC(=O)N(C)c1ccc(-c2ccc(C(=O)NCc3cccnc3)cn2)cc1` [Compound I-331, 6-[4-[Methyl(propanoyl)amino]phenyl]-N-(3-pyridylmethyl)pyridine-3-carboxamide], the “NAMPT Inhibition Code” value at NAMPT was “A (A = <33% inhibition)”. The IC50 in the assay with MV-4-11 cells (CellTiter Glo2 (Table E2), read-out: MV-4-11 Cell Viability, MV-4-11 IC50) is 0.436 µM. For the compound `CCC(=O)N(C)c1ccc(-c2ccc(C(=O)Nc3cccnc3)cn2)cc1` [Compound I-353, 6-[4-[methyl(propanoyl)amino]phenyl]-N-(3-pyridyl)pyridine-3-carboxamide], on NAMPT, the “NAMPT Inhibition Code” value is “C (C = ≥66% inhibition)”. Also, in the assay with MV-4-11 cells (setting [1]), the IC50 amounted to 0.941 µM. Take `CCC(=O)Nc1ccc(-c2ccc(C(=O)NCc3cccnc3)cn2)cc1` [Compound I-354, 6-[4-(propanoylamino)phenyl]-N-(3-pyridylmethyl)pyridine-3-carboxamide]: the “NAMPT Inhibition Code” value on NAMPT is “A (A = <33% inhibition)”. The IC50 in the assay on MV-4-11 cells (setting [1]) is more than 30 µM. `CCC(=O)N(C)c1ccc(-c2ccc(C(=O)Nc3nc(C)cs3)cn2)cc1` [Compound I-355, 6-[4-[methyl(propanoyl)amino]phenyl]-N-(4-methylthiazol-2-yl)pyridine-3-carboxamide]: the “NAMPT Inhibition Code” value on NAMPT is on record as “A (A = <33% inhibition)”. For the same compound, the IC50 with MV-4-11 cells (setting [1]) is 2.91 µM.

Regarding `CCOC(=O)N(C)c1ccc(-c2ccc(C(=O)NCc3cccnc3)cn2)cc1` [Compound I-389, ethyl N-methyl-N-[4-[5-(3-pyridylmethylcarbamoyl)-2-pyridyl]phenyl]carbamate], on NAMPT, the “NAMPT Inhibition Code” value is reported as “A (A = <33% inhibition)”. Also, in the assay on MV-4-11 cells (setting [1]), the IC50 came out at 3.17 µM. With `CCC(=O)N(C)c1ccc(-c2ccc(C(=O)NCc3ccc(F)nc3C)cn2)cc1` [Compound I-390, N-[(6-fluoro-2-methyl-3-pyridyl)methyl]-6-[4-[methyl(propanoyl)amino]phenyl]pyridine-3-carboxamide], the “NAMPT Inhibition Code” value on NAMPT is reported as “A (A = <33% inhibition)”. For the same compound, in the assay on MV-4-11 cells (setting [1]), the IC50 stood at 4.26 µM. `CCC(=O)N(C)c1ccc(-c2ccc(C(=O)NCc3cccnc3C)cn2)cc1` [Compound I-392, 6-[4-[methyl(propanoyl)amino]phenyl]-N-[(2-methyl-3-pyridyl)methyl]pyridine-3-carboxamide]: the “NAMPT Inhibition Code” value on NAMPT is given as “A (A = <33% inhibition)”. Further, the IC50 in the assay with MV-4-11 cells (setting [1]) is 6.23 µM. As to `CCC(=O)N(C)c1ccc(-c2ccc(C(=O)NCc3ccc(F)nc3)cn2)cc1` [Compound I-393, N-[(6-fluoro-3-pyridyl)methyl]-6-[4-[methyl(propanoyl)amino]phenyl]pyridine-3-carboxamide], on NAMPT, the “NAMPT Inhibition Code” value is recorded as “A (A = <33% inhibition)”. Further, in the assay with MV-4-11 cells (setting [1]), the IC50 was more than 30 µM. Consider `CCC(=O)N(C)c1ccc(-c2ccc(C(=O)NCc3ccc(C)nc3C)cn2)cc1` [Compound I-394, N-[(2,6-dimethyl-3-pyridyl)methyl]-6-[4-[methyl(propanoyl)amino]phenyl]pyridine-3-carboxamide], for which the “NAMPT Inhibition Code” value at NAMPT is “A (A = <33% inhibition)”. Also, the 50% inhibitory concentration (IC50) in the assay with MV-4-11 cells (setting [1]) is 3.52 µM. Turning to `CCC(=O)N(C)c1ccc(-c2ccc(C(=O)NCc3cccnc3Cl)cn2)cc1` [Compound I-395, N-[(2-chloro-3-pyridyl)methyl]-6-[4-[methyl(propanoyl)amino]phenyl]pyridine-3-carboxamide], the “NAMPT Inhibition Code” value on NAMPT is listed as “A (A = <33% inhibition)”. For the same compound, the IC50 in the assay with MV-4-11 cells (setting [1]) stood at 6.11 µM. In the case of `CCC(=O)N(C)c1ccc(-c2ccc(C(=O)NCc3ccc(Cl)nc3)cn2)cc1` [Compound I-396, N-[(6-chloro-3-pyridyl)methyl]-6-[4-[methyl(propanoyl)amino]phenyl]pyridine-3-carboxamide], at NAMPT, the “NAMPT Inhibition Code” value is given as “C (C = ≥66% inhibition)”. Also, in the assay with MV-4-11 cells (setting [1]), the IC50 came out at 6.56 µM.

Turning to `CCC(=O)N(C)c1ccc(-c2ccc(C(=O)NCc3ccc(OC)nc3)cn2)cc1` [Compound I-397, N-[(6-methoxy-3-pyridyl)methyl]-6-[4-[methyl(propanoyl)amino]phenyl]pyridine-3-carboxamide], the “NAMPT Inhibition Code” value on NAMPT is on record as “B (B = ≥33 to <66% inhibition)”. The half-maximal inhibitory concentration (IC50) in the assay on MV-4-11 cells (setting [1]) came to 13.8 µM. Take `CC(=O)N(CC(C)C)c1ccc(-c2ccc(C(=O)NCc3cccnc3)cc2)cc1` [Compound I-402, 4-[4-[acetyl(isobutyl)amino]phenyl]-N-(3-pyridylmethyl)benzamide]: at NAMPT, the “NAMPT Inhibition Code” value was “C (C = ≥66% inhibition)”. Also, in the assay on MV-4-11 cells (setting [1]), the IC50 amounted to 0.0587 µM. Turning to `CCC(=O)N(CC(C)C)c1ccc(-c2ccc(C(=O)NCc3cccnc3)cn2)cc1` [Compound I-403, 6-[4-[isobutyl(propanoyl)amino]phenyl]-N-(3-pyridylmethyl)pyridine-3-carboxamide], the “NAMPT Inhibition Code” value at NAMPT is recorded as “C (C = ≥66% inhibition)”. In the assay with MV-4-11 cells (setting [1]), the IC50 was less than 0.0117 µM. Turning to `CC(=O)N(CC(C)C)c1ccc(-c2ccc(C(=O)NCc3cccnc3)cn2)cc1` [Compound I-404], on NAMPT, the “NAMPT Inhibition Code” value was “B (B = ≥33 to <66% inhibition)”. Also, the IC50 in the assay with MV-4-11 cells (setting [1]) came out at 0.032 µM. `CC(C)CN(CC(C)C)c1ccc(-c2ccc(C(=O)NCc3cccnc3)cc2)cc1` [Compound I-406, 4-[4-(diisobutylamino)phenyl]-N-(3-pyridylmethyl)benzamide]: the “NAMPT Inhibition Code” value at NAMPT is “B (B = ≥33 to <66% inhibition)”. The IC50 with MV-4-11 cells (setting [1]) turned out to be 0.817 µM. Take `CCCN(C(=O)CC)c1ccc(-c2ccc(C(=O)NCc3cccnc3)cn2)cc1` [Compound I-410, 6-[4-[propanoyl(propyl)amino]phenyl]-N-(3-pyridylmethyl)pyridine-3-carboxamide]: the “NAMPT Inhibition Code” value on NAMPT is “B (B = ≥33 to <66% inhibition)”. The IC50 in the assay on MV-4-11 cells (setting [1]) came out at 0.119 µM. For `CCCCN(C(C)=O)c1ccc(-c2ccc(C(=O)NCc3cccnc3)cn2)cc1` [Compound I-411, 6-[4-[acetyl(butyl)amino]phenyl]-N-(3-pyridylmethyl)pyridine-3-carboxamide], the “NAMPT Inhibition Code” value at NAMPT is recorded as “B (B = ≥33 to <66% inhibition)”. Moreover, the IC50 in the assay with MV-4-11 cells (setting [1]) came to 0.125 µM.

Consider `CC(=O)N(CC1CC(F)(F)C1)c1ccc(-c2ccc(C(=O)NCc3cccnc3)cn2)cc1` [Compound I-412, 6-[4-[acetyl-[(3,3-difluorocyclobutyl)methyl]amino]phenyl]-N-(3-pyridylmethyl)pyridine-3-carboxamide], for which the “NAMPT Inhibition Code” value on NAMPT is recorded as “B (B = ≥33 to <66% inhibition)”. Also, the IC50 in the assay with MV-4-11 cells (setting [1]) was 0.0825 µM. On the same counts, the results for `CCC(=O)N(CCNC(=O)OC(C)(C)C)c1ccc(-c2ccc(C(=O)NCc3cccnc3)cc2)cc1` [Compound I-417, tert-butyl N-[2-[N-propanoyl-4-[4-(3-pyridylmethylcarbamoyl)phenyl]anilino]ethyl]carbamate] are “A (A = <33% inhibition)” and 0.105 µM. Take `CC(=O)N(CC1CC1)c1ccc(-c2ccc(C(=O)NCc3cccnc3)cn2)cc1` [Compound I-421, 6-[4-[acetyl(cyclopropylmethyl)amino]phenyl]-N-(3-pyridylmethyl)pyridine-3-carboxamide]: at NAMPT, the “NAMPT Inhibition Code” value was “B (B = ≥33 to <66% inhibition)”. For the same compound, the IC50 in the assay with MV-4-11 cells (setting [1]) came to 0.117 µM. Turning to `CC(=O)N(C)c1ccc(-c2ccc(C(=O)NCc3cccnc3)cn2)cc1C` [Compound I-425, 6-[4-[acetyl(methyl)amino]-3-methyl-phenyl]-N-(3-pyridylmethyl)pyridine-3-carboxamide], the “NAMPT Inhibition Code” value on NAMPT is “A (A = <33% inhibition)”. Besides, the IC50 with MV-4-11 cells (setting [1]) came out at 1.67 µM. Turning to `CC(=O)N(C)c1ccc(-c2ccc(C(=O)NCc3cccnc3C)cn2)cc1C` [Compound I-428, 6-[4-[acetyl(methyl)amino]-3-methyl-phenyl]-N-[(2-methyl-3-pyridyl)methyl]pyridine-3-carboxamide], in the assay on MV-4-11 cells (setting [1]), the IC50 is 3.46 µM. Regarding `CCN(C(C)=O)c1ccc(-c2ccc(C(=O)NCc3cccnc3C)cn2)cc1C` [Compound I-429, 6-[4-[acetyl(ethyl)amino]-3-methyl-phenyl]-N-[(2-methyl-3-pyridyl)methyl]pyridine-3-carboxamide], the half-inhibitory concentration (IC50) in the assay on MV-4-11 cells (setting [1]) was 4.03 µM. On to `CC(=O)N(C)c1ccc(-c2ccc(C(=O)NCc3cccnc3F)cn2)cc1C` [Compound I-436, 6-[4-[acetyl(methyl)amino]-3-methyl-phenyl]-N-[(2-fluoro-3-pyridyl)methyl]pyridine-3-carboxamide], for which the IC50 in the assay with MV-4-11 cells (setting [1]) is 13.8 µM.

Take `CC(=O)N(CC1CC1)c1ccc(-c2ccc(C(=O)Nc3cnc4[nH]ncc4c3)cn2)cc1Cl` [Compound I-693, 6-[4-[Acetyl(cyclopropylmethyl)amino]-3-chloro-phenyl]-N-(1H-pyrazolo[3,4-b]pyridin-5-yl)pyridine-3-carboxamide]: on NAMPT, the “NAMPT Inhibition Code” value is on record as “B (B = ≥33 to <66% inhibition)”.

On to `CC(=O)N(CC1CC1)c1ccc(-c2ccc(C(=O)NCc3ccc(F)nc3)cn2)cc1Cl` [Compound I-696, 6-[4-[Acetyl(cyclopropylmethyl)amino]-3-chloro-phenyl]-N-[(6-fluoro-3-pyridyl)methyl]pyridine-3-carboxamide], for which, on NAMPT, the “NAMPT Inhibition Code” value was “C (C = ≥66% inhibition)”. As to `CC(=O)N(CC1CC1)c1ccc(-c2ccc(C(=O)NCc3ccc(C)nc3)cn2)cc1Cl` [Compound I-697, 6-[4-[Acetyl(cyclopropylmethyl)amino]-3-chloro-phenyl]-N-[(6-methyl-3-pyridyl)methyl]pyridine-3-carboxamide], on NAMPT, the “NAMPT Inhibition Code” value is listed as “C (C = ≥66% inhibition)”. As for `CC(=O)N(CC1CC1)c1ccc(-c2ccc(C(=O)NCc3ccccn3)cn2)cc1Cl` [Compound I-698, 6-[4-[Acetyl(cyclopropylmethyl)amino]-3-chloro-phenyl]-N-(2-pyridylmethyl)pyridine-3-carboxamide], on NAMPT, the “NAMPT Inhibition Code” value was “A (A = <33% inhibition)”.
